In patent publication US11813249B2, “Combination therapy for treatment of restenosis” (Mercator MedSystems, Inc., priority 2017, dated 2023):
“Also recorded” adds a separate entry of the source.

Key:
[1] = Example 13 porcine study: blood and tissue pharmacokinetics
Protocol: (§1) Methods. Twelve animals were evaluated for tissue safety and pharmacokinetic blood and tissue profiles. The animals received vessel injury induced via oversizing a balloon at ˜20-30% overstretch, then receiving subsequent Bullfrog® catheter delivery of 4 mg/mL Torisel® or saline placebo control into the adventitia and perivascular tissue around the coronary and femoral arteries. Blood samples for pharmacokinetic analysis were taken at 5 minutes, 30 minutes, 1 hour, 24 hours, 72 hours, 7 Days, 28 Days, and termination. Animals were terminated at 90 days. Gross examination of all treated tissues and surrounding structures was performed. […] Histological analysis was performed on all other collected arterial tissues.

[2] = tested on: human aortic VSMCs; conditions: 12 hours; for LDH release (necrosis and cytolysis): increasing drug concentrations, with or without 50 nM dexamethasone, FIG. 18A-C; for necrotic cytotoxicity (LDH): single drug or 500 nM TEM or PAC with DEX 10, 50, 500 nM, FIG. 19C
Protocol: At harvest, plates were centrifuged at 800 rpm in a clinical centrifuge, and supernatant was carefully removed and assayed for lysed cells by measuring the LDH released into the culture media by ELISA, according to manufacturer instructions. Absorbance readings were taken using a microtiter plate reader (Tecan). […] Data in FIG. 18A represent the LDH release in the presence of increasing concentrations of sirolimus or sirolimus+50 nM dexamethasone. […] Data represent the average of 9 replicate wells per condition and error bars represent the standard deviation of the 9 replicates.
Treated cells were then incubated for 12 hours. At harvest, plates were centrifuged at 800 rpm in a clinical centrifuge, and supernatant was carefully removed and assayed for LDH by ELISA according to manufacturer instructions. Absorbance readings were taken using a microtiter plate reader (Tecan). Data represent the average absorbance readings. Error bars represent the standard deviation amongst replicates.

[3] = in vivo
Source text: Overview: The purpose of this study was to evaluate the safety and pharmokinetic profile of Torisel® and dexamethasone when delivered in an exaggerated dose to peripheral vasculature in a porcine model of balloon overstretch artery stenosis.
Methods: Four juvenile porcine subjects were used on this study to assess tissue safety and pharmacokinetic profile. The animals received femoral artery injury induced via oversizing a balloon (˜20-30% overstretch). Three animals received subsequent treatment with the Bullfrog® catheter of Torisel® (2 mg/mL) with dexamethasone (6 mg/mL) and contrast medium (20%) into the adventitia and perivascular tissue around the peripheral arteries. The fourth animal received subsequent treatment with the Bullfrog® catheter of saline and contrast medium (20%) into the adventitia and perivascular tissue around the peripheral arteries. Blood samples were taken at baseline, and post-implant 20 minutes, 1 hour, 4 hours, 24 hours, 3 days, 7 days, and just prior to termination for pharmacokinetic assessment. […] The other three animals were survived for 14 days. At day 14, blood was collected, animals were euthanized and a necropsy was performed.

[4] = tested on: human aortic VSMCs; assay: Apoptosis by Caspase 3 ELISA in drug-treated VSMCs; conditions: 12 hours; for apoptosis (Caspase 3 activation): increasing drug concentrations, with or without 50 nM dexamethasone, FIG. 17A-C
Protocol: At harvest, cells were gently lysed and a Caspase 3 ELISA was performed (Cell Signaling Technologies, Cat #7190). Absorbance readings were taken using a microtiter plate reader (Tecan). […] Data represent the average of 9 replicate wells per condition and error bars represent the standard deviation of the 9 replicates. Baseline levels of VSMC apoptosis were obtained using vehicle controls and values were set to zero. The percent change in apoptosis in the presence of drug was determined from baseline (FIG. 17A-C).
Cells were then incubated for 12 hours. At harvest, plates were centrifuged at 800 rpm in a clinical centrifuge, and supernatant was carefully removed. Cells were then fixed and permeabilized and assayed for cytoplasmic caspase 3 levels by ELISA, according to manufacturer instructions (Cell Signaling Technologies). Absorbance readings were taken using a microtiter plate reader (Tecan). Data represent the average absorbance readings. Error bars represent the standard deviation amongst replicates.

[5] = tested on: external iliac arteries; assay: Example 15 WHHL rabbit model of balloon overstretch artery stenosis: histopathology; type: in vivo, Watanabe heritable hyperlipidemic (WHHL) rabbit; conditions: relative to dexamethasone alone or vehicle group
Protocol: Overview. A rabbit study was performed to evaluate the tissue effect of Torisel® (Tem) and dexamethasone (Dex) when delivered as combined or alone to peripheral vasculature in a Watanabe heritable hyperlipidemic (WHHL) rabbit model of balloon overstretch artery stenosis. Each animal was subject to balloon angioplasty and treatment in each of the two (2) external iliac arteries. Four subjects were assigned to each of three groups: Torisel®, dexamethasone, or combination. Three subjects were assigned to each of two groups: control (vehicle delivery) or balloon only. Two New Zealand white rabbits were assigned to treatment with balloon only in one iliac and were naïve to any treatment in the other iliac.
Methods. Twenty animals were evaluated for tissue effect of peri-vascular injection of test and control articles. […] The animals received vessel injury induced via oversizing a balloon (˜20-30% overstretch). Animals were divided into the six groups with varying balloon injury targets and various combinations of test and control articles. The test and control articles were injected into the peri-vascular tissue using the Bullfrog® catheter. Animals were recovered and survived for ˜28 days. At ˜28 days, animals were sacrificed, a gross pathology performed and tissue harvested for histopathology analysis.

[6] = dosage of 4 mg/mL temsirolimus
Protocol: as §1

[7] = tested on: human aortic VSMCs; assay: BrdU ELISA proliferation of PDGF-stimulated VSMCs; type: cell-based; conditions: Example 11; 1 nM to 100 μM for 12 hours; PDGF 10 ng/mL; compared to vehicle control and actinomycin D; FIG. 20
Protocol: (§2) A study was performed to assess the ability of a range of drug or drug combinations to induce cytotoxicity in PDGF-stimulated aortic smooth muscle and endothelial cells in vitro. […] Utilizing protocols for EC and VSMC stimulation mediated by the growth factor, PDGF, cells were incubated in drug at concentration ranges from 0, 1, 10, 100 nM, 1, 10, 100 μM for 12 hours prior to assessment for cellular activation and cytotoxicity. Prior to harvest, BrdU was added to each well for 6 hours for DNA incorporation. […] Data represent the average absorbance readings. […] Cellular activation was monitored by metabolic activity and cellular proliferation. Metabolic activity was measured using the MTT assay to monitor enzyme-dependent metabolite production while proliferation was measured using 5-bromo-2′-deoxyuridine (BrdU) ELISA to monitor DNA synthesis.

[8] = tested on: IL6 cytokine production of human aortic VSMCs; assay: IL6 ELISA of supernatant of PDGF-stimulated VSMCs; type: cell-based; conditions: for PDGF-induced IL6 levels: 48 h, single drug 0, 10, 50, 500 nM, or 500 nM TEM or PAC with DEX 10, 50, 500 nM, FIG. 19D
Protocol: Following a 48 hour incubation in the presence of drug and stimulant (PDGF), 50 uL of supernatant from each well was collected and ELISAs were performed to measure IL6 levels. Pro-inflammatory cytokine expression was examined under these conditions by measuring IL6 levels in cell supernatant after 48 h by enzyme-linked immunoassay (ELISA; Peprotech #900-T16, #900-T25).

[9] = tested on: TNFα production of human aortic VSMCs; assay: TNFα ELISA of supernatant of PDGF-stimulated VSMCs; type: cell-based; conditions: for PDGF-induced TNFα levels: 48 h, single drug 0, 10, 50, 500 nM, or 500 nM TEM or PAC with DEX 10, 50, 500 nM, FIG. 19E
Protocol: Following a 48 hour incubation in the presence of drug and stimulant (PDGF), 50 uL of supernatant from each well was collected and ELISAs were performed to measure TNFα levels. Pro-inflammatory cytokine expression was examined under these conditions by measuring TNFα levels in cell supernatant after 48 h by enzyme-linked immunoassay (ELISA; Peprotech #900-T16, #900-T25).

[10] = parameters: species or system swine; conditions: pig, in vivo
Protocol: The study design included a total of eleven (11) animals; 8 of which received angioplasty overstretch followed by single dose of test article in bilateral superficial femoral arteries administered for a total in-life phase of 1 hour (n=2), 3 days (n=2), 7 days (n=2) and 28 days (n=2) and three additional animals that served as control by undergoing angioplasty overstretch followed by infusion of saline and surviving for 3 days (n=1), 7 days (n=1) and 28 days (n=1). A carotid artery access was utilized for all interventional procedures. […] Animals survived to 1 hour (n=2), 3 days (n=2), 7 days (n=2) and 28 days (n=2), for detailed histopathology and safety evaluation. Following survival to the designated endpoint, animals underwent blood collection, then were euthanized and necropsied followed by histological examination.
A prospective study of a single dose (357 μg in 1.5 ml) of adventitially delivered study drug (Torisel®) was conducted. All doses contained 50% contrast medium for distribution tracking. Each pig received bilateral injections in the mid femoral region. 2 pigs each were sacrificed at 1 hour, 3 days, 7 days and 28 days, for a total of 8 pigs. […] 3 pigs were used as control in which treatment sites were subjected to overstretch injury followed by infusion of saline via the Mercator Bullfrog® catheter and sacrificed at 3 days, 7 days or 28 days (1 pig at each time point). […]

[11] = tested on: human aortic VSMCs; assay: MTT metabolic activity / proliferation of PDGF-stimulated VSMCs; type: cell-based; conditions: PDGF 10 ng/mL; for inhibitory activity in the MTT assay: Example 11, 1 nM to 100 μM for 12 hours; for inhibition of metabolic activity and proliferation (MTT assay): drug 0, 1, 10, 100, 500 nM, with or without 50 nM dexamethasone, FIGS. 14A-C
Protocol: Drug-specific effects on cellular metabolic activity, pro-inflammatory cytokine production and cytotoxicity were examined. As a cytotoxic control for disruption of metabolic activity, we used actinomycin D (100 ng/mL or […]). As a negative control, vehicle (5% (v/v) sterile DMSO in saline) was used. Following an 8 hour incubation in the presence of drug and stim (PDGF), MTT substrate was added and incubated for an additional 4 hrs prior to measurement. […] Data represent the average absorbance readings.
After 8 h incubation, MTT substrate was added and incubated for an additional 4 hrs prior to measurement (T=12 hours). […] Data represent the average absorbance readings. […] FIG. 19A presents the percent of inhibition that was identified in the presence of single or combination drugs. Low doses of all drugs, administered individually, had minimal inhibitory properties, as compared to high dose of each drug.
as §2

CO[C@H]1C[C@@H]2CC[C@@H](C)[C@@](O)(O2)C(=O)C(=O)N2CCCC[C@H]2C(=O)O[C@H]([C@H](C)C[C@@H]2CC[C@@H](O)[C@H](OC)C2)CC(=O)[C@H](C)/C=C(\C)[C@@H](O)[C@@H](OC)C(=O)[C@H](C)C[C@H](C)/C=C/C=C/C=C/1C [sirolimus]
relation of observed blood concentrations to dose ([1]; 52 mg versus 5.2 mg Torisel): proportional to dose
homogenized vascular tissue levels ([1]; termination at 90 days): all below LLOQ
whole blood levels at 28 days and at termination ([1]; termination at 90 days): below LLOQ
whole blood levels, time course ([1]; up to 52 mg or 5.2 mg Torisel, perivascular, coronary and peripheral arteries): peaked at early time points, declined over time to Day 7

C[C@@H]1C[C@H]2[C@@H]3CCC4=CC(=O)C=C[C@]4(C)[C@@]3(F)[C@@H](O)C[C@]2(C)[C@@]1(O)C(=O)CO [dexamethasone]
LDH release (necrosis and cytolysis) [2]: suppressed LDH release compared to vehicle
necrotic cytotoxicity (LDH) [2]: not observed
dexamethasone levels in plasma at the 24-hour time point and after ([3]; pig, in vivo): below LLOQ
tissue levels at 14 days ([3]; pig, in vivo): below LLOQ
apoptosis (Caspase 3 activation) [4]: did not induce significant apoptosis

CO[C@H]1C[C@@H]2CC[C@@H](C)[C@@](O)(O2)C(=O)C(=O)N2CCCC[C@H]2C(=O)O[C@H]([C@H](C)C[C@@H]2CC[C@@H](OC(=O)C(C)(CO)CO)[C@H](OC)C2)CC(=O)[C@H](C)/C=C(\C)[C@@H](O)[C@@H](OC)C(=O)[C@H](C)C[C@H](C)/C=C/C=C/C=C/1C [temsirolimus]
% HHF-35 positive intimal/medial area (marker of vascular smooth muscle cell viability) [5]: smaller
mineralization in tissues [6]: not previously seen
inhibition of BrdU incorporation (cellular proliferation) [7]: approached the degree of inhibition of actinomycin D
PDGF-induced IL6 levels [8]: dose-dependent reduction
PDGF-induced TNFα levels [9]: dose-dependent reduction
time post-dosing up to which drug was measured in the local vascular tissue [10]: up to 28 days
inhibitory activity in the MTT assay [11]: at higher concentrations had inhibitory activity
inhibition of metabolic activity and proliferation (MTT assay) [11]: at higher concentrations had inhibitory activity
temsirolimus levels in the blood, time course ([3]; Torisel 2 mg/mL with dexamethasone 6 mg/mL, perivascular, peripheral arteries): peaked at early time points, declined over time to 7 days
temsirolimus levels in the blood at termination ([3]; day 14): below the lower limit of quantitation (LLOQ)
level in homogenized vascular tissue at term ([3]; day 14, one value per test animal): 97.5 ng/g
level in vascular tissue at term, molar equivalent ([3]; day 14, printed as equivalent): 94.7 nM
concentration at 14 days ([3]; pig, in vivo, level in homogenized vascular tissue at term, day 14, one value per test animal): 50.3 ng/g
concentration at 14 days ([3]; pig, in vivo, level in vascular tissue at term, molar equivalent, day 14, printed as equivalent): 48.8 nM
relation of observed blood concentrations to dose ([1]; pig, in vivo): proportional to dose
whole blood levels at 28 days and at termination ([1]; pig, in vivo): below LLOQ

CC(=O)O[C@H]1C(=O)[C@@]2(C)[C@H]([C@H](OC(=O)c3ccccc3)[C@]3(O)C[C@H](OC(=O)[C@H](O)[C@@H](NC(=O)c4ccccc4)c4ccccc4)C(C)=C1C3(C)C)[C@]1(OC(C)=O)CO[C@@H]1C[C@@H]2O [paclitaxel]
inhibition of BrdU incorporation (cellular proliferation) [7]: approached the degree of inhibition of actinomycin D
PDGF-induced IL6 levels [8]: dose-dependent upregulation
IL6 production ([8]; 48 hour incubation, increasing drug concentrations, with or without 50 nM dexamethasone, FIGS. 16A-C): induced IL6 and TNFα production by SMCs at all doses tested; also recorded: no significant change in IL6 levels between 50 and 500 nM
PDGF-induced TNFα levels [9]: dose-dependent upregulation
TNFα production ([9]; 48 hour incubation, increasing drug concentrations, with or without 50 nM dexamethasone, FIGS. 15A-C): activated pro-inflammatory cytokine expression; also recorded: induced IL6 and TNFα production by SMCs at all doses tested; also recorded: increased steadily
LDH release (necrosis and cytolysis) [2]: dose-dependent relationship
necrotic cytotoxicity (LDH) [2]: demonstrated necrotic cytotoxicity
inhibitory activity in the MTT assay [11]: at higher concentrations had inhibitory activity
inhibition of metabolic activity and proliferation (MTT assay) [11]: at higher concentrations had inhibitory activity
average increase in apoptosis from vehicle baseline ([4]; Caspase 3 ELISA, vehicle baseline set to zero): ≤ 173%
apoptosis (Caspase 3 activation) [4]: induced in a dose-dependent manner
apoptosis (cytoplasmic caspase 3) compared to vehicle control ([4]; single drug or 500 nM TEM or PAC with DEX 10, 50, 500 nM, FIG. 19B): promote apoptosis (lack of inhibition)
